Measurements reported in publication PMC6367362, “MD001, a Novel Peroxisome Proliferator-activated Receptor α/γ Agonist, Improves Glucose and Lipid Metabolism” (Scientific Reports, 2019).

Target: T1, human HA-PPARγ (Homo sapiens, UniProt P37231)
T1 construct: expressed in transfected cells; host or cells: HEK293
T1 sequence (P37231 1-505): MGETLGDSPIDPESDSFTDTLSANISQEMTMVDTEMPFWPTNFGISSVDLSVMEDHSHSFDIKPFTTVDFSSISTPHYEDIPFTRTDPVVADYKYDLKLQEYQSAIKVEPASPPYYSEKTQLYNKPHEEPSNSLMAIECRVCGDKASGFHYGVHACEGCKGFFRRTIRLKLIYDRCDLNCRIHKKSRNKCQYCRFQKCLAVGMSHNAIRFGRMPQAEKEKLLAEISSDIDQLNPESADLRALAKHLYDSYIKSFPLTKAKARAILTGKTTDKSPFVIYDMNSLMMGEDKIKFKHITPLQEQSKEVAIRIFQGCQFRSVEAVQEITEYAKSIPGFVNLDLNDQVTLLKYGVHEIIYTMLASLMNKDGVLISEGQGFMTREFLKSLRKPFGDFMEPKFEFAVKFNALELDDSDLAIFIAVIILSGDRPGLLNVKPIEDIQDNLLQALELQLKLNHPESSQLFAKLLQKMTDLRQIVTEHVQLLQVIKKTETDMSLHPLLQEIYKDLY
Test: PPRE luciferase activity assay in HEK293 cells transfected with HA-PPARγ
Format: cell-based
Design: transcriptional activity of PPARγ: dose or concentration left out as unconfirmed
Conditions: HEK293, PPRE-pk-Luc
Experimental: Figure 2 MD001 induces the expression of target genes through PPARα and PPARγ activation. HEK293 cells were transiently co-transfected with human HA-PPARα (A) and HA-PPARγ (B) expression vectors along with the reporter plasmid (PPRE-pk-Luc) or control reporter plasmid (pk-Luc) with Renilla vector for 24 h. Cells were treated with MD001 (10 μM), rosiglitazone (rosi) (10 μM) or WY14643 (WY) (10 μM) for 24 h. Luciferase activity was normalised to Renilla luciferase activity as described in the Methods section. **, vs. vehicle. (C) HepG2 cells were treated with MD001 (10 μM) for 24 h, and total RNA was isolated and synthesised into cDNA. Relative expression was quantitated using qRT-PCR. **, vs. vehicle. (D,E) HepG2 cells were transfected with control siRNA, PPARα siRNA (D), or PPARγ siRNA (E) for 48 h and treated with vehicle, WY14643 (10 μM), rosiglitazone (10 μM) or MD001 (10 μM) for 24 h. Subsequently, cells were harvested for total RNA isolation. Relative expression of target genes was quantitated using qRT-PCR. ^#, vs. control siRNA; ^‡, vs. control siRNA/vehicle; ^§, vs. control siRNA/WY; * and **, vs. control siRNA/MD001. Data represent the mean ± SD of three independent experiments. *P < 0.05, **P < 0.01, ^#P < 0.01, ^‡P < 0.01, and ^§P < 0.01.
For transient transfection, cells were transfected with plasmid DNA constructs by polyethylenimine (PEI, Polysciences, Inc., Warrington, PA, USA) according to the manufacturer’s instructions. Transcription activity assays of PPARα and PPARγ in HEK293 cells were performed by co-transfection of HA-PPARα, HA-PPARγ, and peroxisome proliferator-response element (PPRE) reporter plasmid (PPRE-pk-Luc) or control reporter plasmid (pk-Luc) with Renilla vector for 24 h. […] Luciferase activity was measured with the Dual-Luciferase Reporter Assay System (Promega, Madison, WI, USA) and quantified using GloMax (Promega, USA) according to the manufacturer’s protocol. […]
Luciferase activity was measured as described in the Methods section. […]

## Cc1c(O)cc(O)c2c(-c3ccccc3)c(C(=O)/C=C/c3ccccc3)c(=O)oc12 [MD001]
10 μM, 24 h, vs. vehicle
  transcription via PPARγ activation (luciferase activity): significantly increased
24 h (Supplementary Fig. S2)
  transcriptional activity of PPARγ: promoted simultaneous transcriptional activity
